Experimental data taken from the NIST ThermoML archive (doi:10.1021/je900478c).

Assay: xn = mol fraction of the nth substance listed
Conditions: 101 kPa, Liquid; for viscosity: Capillary tube (Ostwald / Ubbelohde) method

CCCCOCCO [2-butoxyethan-1-ol] + O
Conditions	mass density, 283.15 K [kg/m3]	mass density, 293.15 K [kg/m3]	mass density, 303.15 K [kg/m3]	mass density, 313.15 K [kg/m3]	mass density, 323.15 K [kg/m3]	viscosity, 283.15 K [mPa·s]	viscosity, 293.15 K [mPa·s]	viscosity, 303.15 K [mPa·s]	viscosity, 313.15 K [mPa·s]	viscosity, 323.15 K [mPa·s]
x1 = 0.0005	999.62	998.13	995.57	992.12	–	–	–	–	–	–
x1 = 0.001	999.53	998.01	995.46	992.02	–	–	–	–	–	–
x1 = 0.00201	999.43	997.89	995.29	991.8	–	–	–	–	–	–
x1 = 0.003	999.37	997.78	995.12	991.58	–	–	–	–	–	–
x1 = 0.00399	999.24	997.6	994.89	991.31	–	–	–	–	–	–
x1 = 0.005	999.06	997.34	994.59	990.98	–	–	–	–	–	–
x1 = 0.00601	998.89	997.11	994.27	990.64	–	–	–	–	–	–
x1 = 0.00699	998.86	996.97	994.06	990.36	–	–	–	–	–	–
x1 = 0.00801	998.8	996.83	993.86	990.11	–	–	–	–	–	–
x1 = 0.00896	998.72	996.7	993.69	989.86	–	–	–	–	–	–
x1 = 0.00998	998.68	996.57	993.5	989.6	–	–	–	–	–	–
x1 = 0.01102	998.64	996.43	993.3	989.31	–	–	–	–	–	–
x1 = 0.01209	998.59	996.3	993.09	988.99	–	–	–	–	–	–
x1 = 0.01317	998.55	996.16	992.85	988.65	–	–	–	–	–	–
x1 = 0.01401	998.49	996.02	992.63	988.37	–	–	–	–	–	–
x1 = 0.01499	998.49	995.91	992.38	988.01	–	–	–	–	–	–
x1 = 0.01959	998.45	994.9	990.79	985.95	–	–	–	–	–	–
x1 = 0.02529	997	992.94	988.38	983.21	–	–	–	–	–	–
x1 = 0.0307	995.31	990.88	986.03	980.66	–	–	–	–	–	–
x1 = 0.03495	993.94	989.28	984.22	978.71	–	–	–	–	–	–
x1 = 0.04047	992.16	987.22	981.99	976.24	–	–	–	–	–	–
x1 = 0.04524	990.59	985.5	980.12	974.25	–	–	–	–	–	–
x1 = 0.04961	989.23	983.99	978.47	972.5	–	–	–	–	–	–
x1 = 0.05991	986.08	980.54	974.75	968.52	–	–	–	–	–	–
x1 = 0.06979	983.28	977.49	971.48	965.02	–	–	–	–	–	–
x1 = 0.07979	980.63	974.61	968.38	961.77	–	–	–	–	–	–
x1 = 0.08979	978.05	971.87	965.46	958.67	–	–	–	–	–	–
x1 = 0.1003	975.52	969.12	962.59	955.66	–	5.489	3.791	2.772	2.126	–
x1 = 0.2	957.51	950.15	942.62	934.8	926.83	7.107	4.854	3.483	2.584	1.979
x1 = 0.3	945.28	937.5	929.57	921.47	913.23	7.415	5.079	3.64	2.698	2.054
x1 = 0.4	935.77	927.76	919.6	911.3	902.87	7.234	4.994	3.594	2.672	2.038
x1 = 0.5	928.69	920.54	912.16	903.78	895.22	6.83	4.761	3.448	2.583	1.981
x1 = 0.6	923.16	914.96	906.6	898.14	889.56	6.352	4.476	3.272	2.465	1.901
x1 = 0.7	918.7	910.49	902.02	893.57	884.96	5.857	4.172	3.079	2.337	1.813
x1 = 0.7999	915.01	906.78	898.3	889.84	881.26	5.36	3.865	2.879	2.205	1.721
x1 = 0.9	912.08	903.8	895.3	886.83	878.23	4.885	3.56	2.679	2.068	1.629
x1 = 1	909.49	901.18	892.68	884.21	875.6	4.46	3.288	2.499	1.946	1.543

CCCCCCOCCOCCO [2-(2-hexyloxyethoxy)ethanol] + O
mass density [kg/m3]
Conditions	283.15 K	288.15 K	293.15 K	303.15 K	313.15 K
x1 = 0.0005	999.68	999.08	998.19	995.64	992.26
x1 = 0.00075	999.67	999.06	998.17	995.59	992.23
x1 = 0.001	999.66	999.07	998.17	995.58	992.18
x1 = 0.00118	999.7	999.09	998.17	995.57	992.11
x1 = 0.00135	999.76	999.14	998.2	995.58	992.03
x1 = 0.0015	999.84	999.17	998.16	995.51	991.94
x1 = 0.00164	999.86	999.18	998.09	–	–
x1 = 0.00196	999.87	999.15	–	–	–
x1 = 0.00225	999.88	999.08	–	–	–
x1 = 0.01501	995.9	–	–	–	–
x1 = 0.01996	994.71	–	–	–	–
x1 = 0.02493	993.53	–	–	–	–
x1 = 0.03004	992.45	–	–	–	–
x1 = 0.03536	991.13	–	–	–	–
x1 = 0.03996	990.1	–	–	–	–
x1 = 0.04496	989.11	–	–	–	–
x1 = 0.0501	988.12	985.54	–	–	–
x1 = 0.05911	986.43	983.76	–	–	–
x1 = 0.06985	984.69	982.01	979.28	–	–
x1 = 0.07977	983.2	980.24	977.23	–	–
x1 = 0.08835	982.02	978.92	975.77	–	–
x1 = 0.09988	980.51	977.4	973.98	–	–
x1 = 0.1332	976.63	973.14	969.58	962.38	–
x1 = 0.2029	970.18	966.49	962.68	955.04	947.26
x1 = 0.2856	964.36	960.42	956.52	948.66	940.71
x1 = 0.3597	960.18	956.18	952.21	944.22	936.21
x1 = 0.4529	955.83	951.8	947.82	939.82	931.76
x1 = 0.5426	952.4	948.39	944.4	936.42	928.33
x1 = 0.6772	948.33	944.25	940.24	932.25	924.21
x1 = 0.827	945.13	941.05	937.03	929.05	921.02
x1 = 1	942.09	938.05	934.06	926.08	918.17
